In PubChem BioAssay AID179 (DTP/NCI, 2004):
Several values for one entry are separate records, joined by “and”; a condition that tells them apart may be missing. Equal values may be shown once. Activity calls are given as the source filed them.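 Rule for the calls: active = compounds giving half or more protection of infected cells from virus-caused growth loss, again on retest; inactive = the rest.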

Test system: CEM cells HIV-1 protection, formazan growth assay
Experiment: NCI AIDS Antiviral Assay
Details: for IC50: measured here: growth of uninfected CEM cells
Method in brief: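 Steps: treat uninfected and HIV-1-infected human CEM cells at five drug levels; quantify growth by soluble formazan; retest any compound reaching 50% protection; classify actives from the retest.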

CN1Cc2cc3c(cc2-c2ccccc21)OCO3
EC50: 269 µM | IC50: 282 µM

COc1cc(/C=C2\C(=O)N(c3ccc(Cl)cc3)C(c3ccccc3)S2(=O)=O)cc(OC)c1OC (configuration not stated)
outcome: inactive

COC(=O)C(Cc1ccccc1)NP(=O)(O)OCC1OC(n2cc(I)c(=O)[nH]c2=O)CC1O (configuration not stated)
EC50: > 200 µM | IC50: > 200 µM

COC(=O)C(C)(C)C(=O)C(C)(C)P(C)(=O)OC (configuration not stated)
EC50: > 200 µM | IC50: > 200 µM

O=NC1C(=O)NC(=O)NC1=O
EC50: > 200 µM | IC50: > 200 µM

CN(C)S(=O)(=O)c1c(N)ncn1C
EC50: > 1230 µM | IC50: > 1230 µM

Nc1ccn([C@H]2CO[C@@H](CO)[C@@H]2O)c(=O)n1
EC50: > 200 µM | IC50: > 200 µM

O=C1CSC(/C(=N/Nc2ccccc2)c2nc3ccccc3[nH]2)=N1
EC50: > 15.5 µM | IC50: > 15.5 µM

O=C(O)CCCc1ccc([As](=O)(O)O)cc1[N+](=O)[O-]
EC50: > 200 µM | IC50: > 200 µM

CC(=O)NC(CCCNC(=O)N(CCCl)N=O)C(=O)NCc1ccccc1 (configuration not stated)
EC50: > 631 µM | IC50: 69.2 µM

COc1c(C(=O)O)cccc1-c1cccc(C(=O)NCCN(CCNC(=O)c2cccc(-c3cccc(C(=O)O)c3OC)c2OC)CCNC(=O)c2cccc(-c3cccc(C(=O)O)c3OC)c2OC)c1OC
EC50: > 200 µM | IC50: > 200 µM

CC1NCC(O)C(O)C1O (configuration not stated)
EC50: > 49 µM | IC50: > 49 µM

Nc1ccn(C2CC(F)C(CO)S2)c(=O)n1 (configuration not stated)
EC50: > 25.1 µM | IC50: > 25.1 µM

O=C1CSC(c2c[nH]c3ccccc23)N1c1ccc(Cl)cc1Cl (configuration not stated)
EC50: > 257 µM | IC50: 56.2 µM

COc1ccc(/C=C2\Oc3cc(OC(C)=O)ccc3C2=O)cc1
EC50: > 200 µM | IC50: 37.2 µM

O=C(CC1(O)C(=O)N(CN2CCCCC2)c2ccccc21)c1ccccc1 (configuration not stated)
EC50: > 200 µM | IC50: 97.7 µM

Cc1ccc2oc(=O)c3c(O)c4cccc(OC5OC(C)C6O[C@@H](c7ccccc7)OC6C5OC5OC(C)C(O)C(O)C5O)c4c4oc(=O)c1c2c34 (some centres not stated)
EC50: > 7.24 µM | IC50: 0.0324 µM

Cc1ccc(-n2cc(-c3ccc(Cl)cc3)c3c(=N)n(N)cnc32)cc1
EC50: > 100 µM | IC50: 13.5 µM

Nc1cc([N+](=O)[O-])ccc1N1C(=O)CCCC1=O
EC50: > 200 µM | IC50: > 200 µM

COCN1C(=O)[C@@H]2CCCN2C(=O)c2ccc(N)cc21
EC50: > 200 µM | IC50: > 200 µM

Cc1ccc(S(=O)(=O)NC(=S)S)cc1
EC50: > 200 µM | IC50: > 200 µM

O=C(CC(=O)N1N=C(N(c2ccccc2)c2ccccc2)CC1c1ccccc1)Nc1ccc(Cl)cc1 (configuration not stated)
outcome: inactive

COc1ccc(/C=N/NC(=O)c2ccc(O)c(CN(C)C)c2)cc1
EC50: > 200 µM | IC50: > 200 µM

Cn1c(=O)nc2n(-c3ccc(Cl)c(C(F)(F)F)c3)c3ccccc3nc-2c1=O
outcome: inactive

CC1=C(C(=O)Nc2ccccc2)C2(CCCCC2)C(C#N)=C(SCC(=O)Nc2ccc(Br)cc2)N1
EC50: > 200 µM | IC50: 12.3 µM

CCN(CC)[Se]c1ccccc1
outcome: inactive

CC1CC/C(=C\c2ccc(Cl)cc2)C(=O)/C1=C\c1ccc(Cl)cc1 (configuration not stated)
EC50: > 200 µM | IC50: 42.7 µM

CC(C)(C)OC(=O)NC12C3C4C1C1C2C3C41NC(=O)OC(C)(C)C (configuration not stated)
EC50: > 200 µM | IC50: 53.7 µM

O=C(c1ccc(Cl)cc1)N(C(=S)N1CCN(c2ccccc2)CC1)c1ccccc1
EC50: > 12 µM | IC50: 11.2 µM

O=C(CSc1nc(-c2ccccc2)c(-c2ccccc2)[nH]1)N/N=C/c1ccc(Cl)cc1
EC50: > 20.9 µM | IC50: 12 µM

C=CC1C(=C)CCC2C1CCC1C(C)(C(=O)O)CCCC21C (configuration not stated)
outcome: inactive

CCN1CCC(O)(c2ccc(OC)cc2)C(C(=O)c2ccc(OC)cc2)C1 (configuration not stated)
EC50: > 550 µM | IC50: 14.5 µM

CCOC(=O)C(=O)Nc1cccc(C)c1C
EC50: > 813 µM | IC50: > 813 µM

O=c1ccc2cc(O)ccc2o1
EC50: > 200 µM | IC50: > 200 µM

CCN(CC)CCCC(C)Nc1cc(-c2ccccc2)nc2ccccc12 (configuration not stated)
EC50: > 17.8 µM | IC50: 7.76 µM

CCOC(=O)C[C@@H]1C2(C=C[C@@]13CO3)OCC(C)(C)CO2
EC50: > 200 µM | IC50: 129 µM

CCCCCCCCCCCCC/C=C/C(O)C(CO)NC(=O)CCCCC (configuration not stated)
outcome: inactive

O=C1N[C@@H]2c3c(Br)sc(Br)c3C(=O)[C@@H]2O1
EC50: > 200 µM | IC50: 0.759 µM

CCOC(=O)c1nnsc1NN=C(C)C
EC50: > 200 µM | IC50: > 200 µM

O=C(CNC(=O)OCc1ccccc1)NCCCCC(NC(=O)OCc1ccccc1)C(=O)O (configuration not stated)
EC50: > 200 µM | IC50: > 200 µM

CO[C@H]1C[C@](C)(O)Cc2cc3c(c(O)c21)C(=O)c1c(O)cc2c(c1C3=O)O[C@@H]1O[C@@]2(C)[C@H](O)[C@@H](N(C)C)[C@@H]1O
EC50: > 6.92 µM | IC50: 0.0468 µM

Cc1ccccc1NC(=O)Cc1csc(N=Nc2c(O)[nH]c3ccccc23)n1
EC50: > 200 µM | IC50: > 200 µM

O=[N+]([O-])/C(C(Cl)=C(Cl)Cl)=C(/Nc1ccccc1)Sc1ccccc1
EC50: > 200 µM | IC50: 23.4 µM

CN(C)c1ccc(/C=C(\NC(=O)c2ccccc2)c2nc3ccc4c(c3[nH]2)C(=O)c2ccccc2C4=O)cc1
outcome: inactive

Cc1cc(NS(=O)(=O)c2ccc(Nc3c4ccccc4nc4c(C(=O)NCCO)cccc34)cc2)no1
EC50: > 200 µM | IC50: 12.6 µM

C#C[C@]1(O)CCCC2=CC(=O)CC[C@@]21C
outcome: inactive

CCOC(=O)c1[nH]c2nc(SC)nc(Nc3ccccc3Cl)c2c1N
EC50: > 200 µM | IC50: 126 µM

O=C(O)CCN1CCN(CCC(=O)O)CCN(CCC(=O)O)CC1
EC50: > 200 µM | IC50: 18.2 µM

COC(=O)C1CC(Sc2ccccc2)C(=O)C(C(=O)OC)C1 (configuration not stated)
EC50: > 112 µM | IC50: 77.6 µM

COc1cc(Cc2nnc(SC)nc2C)cc(OC)c1OC
EC50: 10 µM | IC50: 22.4 µM

CC12CC(=O)CC1(C)CC(=O)C2 (configuration not stated)
EC50: > 537 µM | IC50: > 537 µM

COc1ccc(-c2cc(C(=O)Nc3cccc(C(F)(F)F)c3)[nH]c(=S)n2)cc1
EC50: > 162 µM | IC50: > 162 µM

CCOC(=O)C1C2c3ccccc3C(c3ccccc32)C1C(=O)OCC (configuration not stated)
EC50: > 200 µM | IC50: > 200 µM

O=C1C2CCCC1C1/C(=[N+](/[O-])O)C=C([N+](=O)[O-])C2C1[N+](=O)[O-] (configuration not stated)
EC50: > 234 µM | IC50: > 234 µM

Nc1nc2ncn(COC(CO)CO)c2c(=O)[nH]1
EC50: > 200 µM | IC50: > 200 µM

CCN(CC)CCOC(=O)c1[nH]c(=O)[nH]c(=O)c1N
EC50: > 200 µM | IC50: > 200 µM

CC1=C(C(=O)Nc2ccc([N+](=O)[O-])cc2)C(c2ccc3c(c2)OCO3)C(C(=O)Nc2ccc([N+](=O)[O-])cc2)=C(C)N1
EC50: > 6.76 µM | IC50: > 6.76 µM

CCOP(C)(=O)C(Cc1c[nH]c2ccccc12)C(=O)O (configuration not stated)
EC50: > 200 µM | IC50: > 200 µM

Cc1cccc([B-]23OCC[N+]2(CNC(=O)C2=C(O)C4(O)C(=O)C5=C(O)c6c(O)cccc6C(C)(O)C5CC4C(N(C)C)C2=O)CCO3)c1 (configuration not stated)
EC50: > 38.9 µM | IC50: > 38.9 µM

NS(=O)(=O)c1cc2c(cc1Cl)NC(/C(=N/NC(=O)c1ccncc1)C1C(=O)NC(=O)NC1=O)=NS2(=O)=O
EC50: > 87.1 µM | IC50: > 87.1 µM

O=C1C(=O)c2ccccc2C(O)=C1C(C1=C(O)c2ccccc2C(=O)C1=O)c1ccccc1
EC50: > 200 µM | IC50: 20.9 µM

CC1=Nn2c(nnc2-c2cccc(N)c2)NC(C)(C)C1
EC50: > 468 µM | IC50: > 468 µM

O=C(CCCN1CCC2(CC1)C(=NC1CCCCC1)NC(=O)N2c1ccccc1)c1ccc(F)cc1
EC50: > 200 µM | IC50: 93.3 µM

Cc1nnc2sc(Cl)nn12
EC50: > 200 µM | IC50: 6.17 µM

CC/C(Cl)=N\OC(=O)Nc1ccc(C#N)cc1
EC50: > 200 µM | IC50: 18.2 µM

O=C1NC2C3CC(OCc4ccccc4)(OCc4ccccc4)C2OC3O1 (configuration not stated)
EC50: > 97.7 µM | IC50: > 97.7 µM

COC(=N)CCSSCCC(=N)OC
EC50: > 200 µM | IC50: > 200 µM

C=CC1(C)CN(Cc2ccccc2)C(C(=O)OCC)O1 (configuration not stated)
EC50: > 26.3 µM | IC50: > 26.3 µM

NC(CC(=O)O)C(=O)NC1Cc2ccccc2C1=O (configuration not stated)
EC50: > 200 µM | IC50: 97.7 µM

O=C(CC1(O)C(=O)Nc2c(Cl)cc(Cl)cc21)c1cccc([N+](=O)[O-])c1 (configuration not stated)
EC50: > 19.1 µM | IC50: > 19.1 µM

O=C1OC(=O)C2C1C(c1ccc(Cl)cc1)N1C3C(=O)OC(=O)C3C(c3ccc(Cl)cc3)N21 (configuration not stated)
EC50: > 28.8 µM | IC50: > 28.8 µM

COCCCNC(=O)C1=C(C)NC(C)=C(C(=O)NCCCOC)C1
EC50: > 200 µM | IC50: 53.7 µM

CP(=O)(O)C(N)c1ccccc1 (configuration not stated)
EC50: > 200 µM | IC50: > 200 µM

CCOC1(O)C(=O)c2ccccc2OC1(OCC)c1ccccc1 (configuration not stated)
EC50: > 200 µM | IC50: 26.9 µM

Nc1nn2cc3c(nc2c1N=Nc1ccc(Cl)cc1)CCCC3
outcome: inactive

O=C(CCCn1cnc([N+](=O)[O-])n1)NCCn1ccnc1[N+](=O)[O-]
EC50: > 200 µM | IC50: > 200 µM

CC(C)C(N)=Nc1ccc(Cl)c(Cl)c1
EC50: > 200 µM | IC50: 72.4 µM

c1ccc2c(c1)[nH]c1c2nc2sccn21
EC50: > 234 µM | IC50: > 145 µM and 214 µM

c1ccc(SCc2ccc3c(c2)OCO3)cc1
EC50: > 77.6 µM | IC50: > 77.6 µM

CC(C)=CCOc1cc(O)c2c(c1)C(=O)c1cc(C)cc(O)c1C2=O
EC50: > 50.1 µM | IC50: > 50.1 µM

Fc1cccc(F)c1C1SCc2nc3cc(Cl)ccc3n21 (configuration not stated)
EC50: > 200 µM | IC50: 182 µM

CC1=NCCc2c1[nH]c1cc(O)ccc21
EC50: > 398 µM | IC50: > 100 µM

CCC(=O)c1c(NOC2OCC(OC(C)=O)C(OC(C)=O)C2OC(C)=O)nc(OC)n(C)c1=O (configuration not stated)
EC50: > 53.7 µM | IC50: > 53.7 µM

CC(=O)OC1CC2Oc3ccc(C)cc3C(C)(O2)C1=O (configuration not stated)
outcome: inactive

O=c1c(-c2ccc3c(c2)OCO3)coc2c3c(ccc12)OCO3
outcome: inactive

O=C1c2cccc3cccc(c23)C(=O)N1c1nccs1
EC50: > 50.1 µM | IC50: > 50.1 µM

CCCCN1C(=O)N(c2ccc(OCC)cc2)C2N(CCCC)C1C(C)(C)C2(C)C (configuration not stated)
EC50: > 21.9 µM | IC50: > 21.9 µM

C[C@H](CCC1=NCCN1)[C@H]1CC[C@H]2[C@@H]3CC[C@@H]4C[C@H](O)CC[C@]4(C)[C@H]3C[C@H](O)[C@]12C
EC50: > 200 µM | IC50: 11.5 µM

Oc1cc(C2OCCCO2)cc(O)c1O
EC50: > 229 µM | IC50: 191 µM
